The target of series [1] is T1, Saos-2 PTH1R (Homo sapiens, UniProt Q03431).
T1 construct: endogenous in cells; host or cells: Saos-2
T1 sequence (Q03431 27-593): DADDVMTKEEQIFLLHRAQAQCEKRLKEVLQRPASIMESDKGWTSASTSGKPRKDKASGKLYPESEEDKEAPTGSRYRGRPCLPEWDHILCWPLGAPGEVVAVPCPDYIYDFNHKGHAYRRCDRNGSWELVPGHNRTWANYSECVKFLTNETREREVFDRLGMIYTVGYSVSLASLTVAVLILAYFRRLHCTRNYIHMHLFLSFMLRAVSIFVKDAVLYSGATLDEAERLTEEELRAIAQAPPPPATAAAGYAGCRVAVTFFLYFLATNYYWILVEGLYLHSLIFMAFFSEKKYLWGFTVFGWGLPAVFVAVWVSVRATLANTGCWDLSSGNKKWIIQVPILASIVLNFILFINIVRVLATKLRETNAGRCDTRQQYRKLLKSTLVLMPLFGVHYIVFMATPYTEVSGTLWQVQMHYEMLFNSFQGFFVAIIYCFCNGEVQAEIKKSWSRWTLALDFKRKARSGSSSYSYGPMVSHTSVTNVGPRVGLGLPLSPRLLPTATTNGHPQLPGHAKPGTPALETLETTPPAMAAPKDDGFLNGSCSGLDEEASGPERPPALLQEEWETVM
Put plainly: cAMP-efficacy assay in Saos-2 cells. The format is cell-based. The conditions noted are these: for Emax ± SEM: relative effect to the control (SEQ ID NO: 32). An outline of the steps: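 cAMP accumulation was assayed by FlashPlate after 15 min peptide stimulation at 37 °C of Saos-2 cells in Tyrode's buffer containing 100 μM IBMX and 0.1% BSA, with the reaction stopped by ice-cold HCl. Variable-slope logistic fitting gave EC50/pEC50, Hill coefficient and Emax, with single or triplicate points.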

The target of series [2] is CYP2D6 (Homo sapiens, UniProt P10635). The experiment in a line: CYP2D6 inhibition in pooled human liver microsomes. The conditions noted are these: 10 μM compound, dextrorphan formation rate. On the set-up: Pooled human liver microsomes (HLM, final concentration 0.05 mg protein/mL); tissue BD Biosciences 452161; host or cells: pooled human liver microsomes. Format: in vitro ADME. The procedure:
Stock solutions of the test compounds (1 mM) were prepared in 50% isopropanol or 20% DMSO. Pooled human liver microsomes (HLM, final concentration 0.05 mg protein/mL) were mixed with phosphate buffer (0.1 M potassium phosphate, pH 7.4), CYP2D6 substrate (dextrometrorphan, 5 μM final concentration) and test compound (10 μM), quinidine (0.5 μM) or vehicle (0.2% DMSO or 0.5% isopropanol). The mixture was preincubated for 5 min at 37° C. prior to initiation of the reaction addition of a NADPH regenerating mixture (Final concentration: 1.25 mM NADP^+, 3.3 mM Glucose-6-phosphate, 3.3 mM MgCL2 and 0.4 U/mL glucose-6-phosphat dehydrogenase). After 5 minutes the reaction was stopped by addition of 0.25 volume stop reagent (94% acetonitrile, 6% acetic acid). Each experiment was performed in duplicate or triplicate.
The quantification of CYP2D6 product (dextrorphan) was performed by LC/MS/MS. After centrifugation for 5 min at 10.000 g, 40 μL of the supernatant was injected onto a C8 RP-HPLC column (XterraMS, C8, […], 50×2.1 mm). Dextrorphan was eluted by a linear gradient from 0 to 90% acetonitrile in 0.1% formic acid over 4 min using a flow rate of 0.15 ml/min. The concentration of dextrorphan in the reaction mixture was estimated from the peak area of the MS/MS transition (m/z 258.1>199) using an external calibration curve (Table 8).
The CYP2D6 activity in HLM was calculated as the metabolite formation rate: […]
Where, v is the formation rate, [metabolite] is the detected concentration of dextrorphan (pmol/mL) at the time (t, min) and [protein] is the protein concentration (mg/mL) in the reaction mixture. The influence of the test compounds on the CYP2D6 activity was calculated as % of the activity measured when incubated with the vehicle. The effect of CYP2D6 inhibitor (quinidine) was included as inhibition control within each batch analysis. A reduction in CYP2D6 activity to less than 70% of the vehicle control was considered significant.
A general note: Liver microsomes are a subcellular fraction often used to study metabolism.

The mark [3] stands for this setting: cAMP, 100 μM IBMX, 37° C. 15 min, suffix of label = salt tested.

Bridge positions count the residues as written; N and C are the ends. Square brackets hold non-standard residues; d marks the D form. Peptide text beside a SMILES is read from it. hArg = N=C(N)NCCCC[C@H](N)C(=O)O; Nle = CCCC[C@H](N)C(=O)O; Ac5c = NC1(C(=O)O)CCCC1; Dab = NCC[C@H](N)C(=O)O; Aib = CC(C)(N)C(=O)O

Chain of CYP2D6 (P10635 whole entry): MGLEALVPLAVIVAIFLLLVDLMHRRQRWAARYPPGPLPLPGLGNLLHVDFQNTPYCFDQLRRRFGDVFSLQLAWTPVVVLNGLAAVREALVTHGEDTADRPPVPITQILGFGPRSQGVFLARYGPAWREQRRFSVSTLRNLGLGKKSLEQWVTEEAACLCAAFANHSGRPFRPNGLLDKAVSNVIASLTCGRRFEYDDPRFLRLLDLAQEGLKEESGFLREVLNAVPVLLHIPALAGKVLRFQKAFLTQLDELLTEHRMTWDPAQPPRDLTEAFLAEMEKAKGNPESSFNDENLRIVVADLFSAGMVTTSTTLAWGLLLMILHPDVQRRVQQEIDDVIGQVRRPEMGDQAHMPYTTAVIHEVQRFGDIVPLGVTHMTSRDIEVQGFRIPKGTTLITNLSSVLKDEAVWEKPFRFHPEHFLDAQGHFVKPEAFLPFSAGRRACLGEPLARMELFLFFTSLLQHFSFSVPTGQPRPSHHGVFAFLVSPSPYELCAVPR

The term EC50 denotes the concentration needed to bring the measured effect to its halfway point. Regarding `CC[C@H](C)[C@H](NC(=O)[C@H](CCC(=O)O)NC(=O)C(C)(C)NC(=O)[C@@H](NC(=O)C1(N)CCCC1)C(C)C)C(=O)N[C@@H](CCC(N)=O)C(=O)N[C@@H](CC(C)C)C(=O)N[C@@H](CCSC)C(=O)N[C@@H](Cc1c[nH]cn1)C(=O)N[C@@H](CCC(N)=O)C(=O)N[C@@H](CCCCNC(=N)N)C(=O)N[C@@H](C)C(=O)N[C@H]1CCCCNC(=O)C[C@@H](C(=O)O)NC(=O)[C@H](CC(N)=O)NC(=O)[C@H](CC(C)C)NC(=O)[C@H](Cc2c[nH]c3ccccc23)NC1=O` [SEQ ID NO: 4, H-Ac5c-Val-Aib-Glu-Ile-Gln-Leu-Met-His-Gln-Har-Ala-Lys( )-Trp-Leu-Asn-Asp( )-OH] (H-[Ac5c]V[Aib]EIQLMHQ[hArg]AKWLND-OH; lactam 13-17), the “potency compared to linear / non-stabilized counterparts, in words” value in series [1] (cAMP) is reported as “clearly higher potency”; in series [1] (cAMP, listed as 4), “increased potencies”; in series [1] (cAMP, listed as SEQ ID NO:4), “higher potency”. The EC50 in series [1] (setting [3]) is 0.038 µM. In addition, the “Emax ± SEM” value in series [1] was 1.11 ± 0.03. In addition, the “CYP2D6 activity (% of vehicle)” value in series [2] is reported as 89 % of vehicle.

Regarding `CCCC[C@H](NC(=O)[C@H](CC(C)C)NC(=O)[C@H](CCC(N)=O)NC(=O)[C@@H](NC(=O)[C@H](CCC(=O)O)NC(=O)C(C)(C)NC(=O)[C@@H](NC(=O)C1(N)CCCC1)C(C)C)[C@@H](C)CC)C(=O)N[C@@H](Cc1c[nH]cn1)C(=O)N[C@@H](CCC(N)=O)C(=O)N[C@@H](CCCCNC(=N)N)C(=O)N[C@@H](C)C(=O)N[C@H]1CCCCNC(=O)C[C@@H](C(N)=O)NC(=O)[C@H](CC(N)=O)NC(=O)[C@H](CC(C)C)NC(=O)[C@H](Cc2c[nH]c3ccccc23)NC1=O` [SEQ ID NO: 20, H-Ac5c-Val-Aib-Glu-Ile-Gln-Leu-Nle-His-Gln-Har-Ala-Lys( )-Trp-Leu-Asn-Asp( )-NH2] (H-[Ac5c]V[Aib]EIQL[Nle]HQ[hArg]AKWLND-NH2; lactam 13-17), the EC50 in series [1] (setting [3]) was 0.00794 µM. In addition, the “Emax ± SEM” value in series [1] stood at 0.97 ± 0.04. In series [2], the “CYP2D6 activity (% of vehicle)” value is reported as 99 % of vehicle.

Consider `CC[C@H](C)[C@H](NC(=O)[C@H](CCC(=O)O)NC(=O)C(C)(C)NC(=O)[C@@H](NC(=O)C1(N)CCCC1)C(C)C)C(=O)N[C@@H](CCC(N)=O)C(=O)N[C@@H](CC(C)C)C(=O)N[C@H](C(=O)N[C@@H](Cc1c[nH]cn1)C(=O)N[C@@H](CCC(N)=O)C(=O)N[C@@H](CCCCNC(=N)N)C(=O)N[C@@H](C)C(=O)N[C@H]1CCCCNC(=O)C[C@@H](C(N)=O)NC(=O)[C@H](CC(N)=O)NC(=O)[C@H](CC(C)C)NC(=O)[C@H](Cc2c[nH]c3ccccc23)NC1=O)C(C)C` [SEQ ID NO: 21, H-Ac5c-Val-Aib-Glu-Ile-Gln-Leu-Val-His-Gln-Har-Ala-Lys( )-Trp-Leu-Asn-Asp( )-NH2] (H-[Ac5c]V[Aib]EIQLVHQ[hArg]AKWLND-NH2; lactam 13-17), for which the EC50 in series [1] (setting [3]) is 0.151 µM. For the same molecule, the “Emax ± SEM” value in series [1] worked out at 1.40 ± 0.27. Further, in series [2], the “CYP2D6 activity (% of vehicle)” value is on record as 92 % of vehicle.

Take `CC[C@H](C)[C@H](NC(=O)[C@H](CCC(=O)O)NC(=O)C(C)(C)NC(=O)[C@@H](NC(=O)C1(N)CCCC1)C(C)C)C(=O)N[C@@H](CCC(N)=O)C(=O)N[C@@H](CC(C)C)C(=O)N[C@@H](CC(C)C)C(=O)N[C@@H](Cc1c[nH]cn1)C(=O)N[C@@H](CCC(N)=O)C(=O)N[C@@H](CCCCNC(=N)N)C(=O)N[C@@H](C)C(=O)N[C@H]1CCNC(=O)C[C@@H](C(N)=O)NC(=O)[C@H](CC(N)=O)NC(=O)[C@H](CC(C)C)NC(=O)[C@H](Cc2c[nH]c3ccccc23)NC1=O` [SEQ ID NO: 41, H-Ac5c-Val-Aib-Glu-Ile-Gln-Leu-Leu-His-Gln-Har-Ala-Dab( )-Trp-Leu-Asn-Asp( )-NH2] (H-[Ac5c]V[Aib]EIQLLHQ[hArg]A[Dab]WLND-NH2; lactam 13-17 (inferred)): in series [1] (setting [3]), the EC50 is 0.0646 µM. Besides, in series [1], the “Emax ± SEM” value was found to be 0.99 ± 0.02. For the same molecule, in series [2], the “CYP2D6 activity (% of vehicle)” value is given as 82 % of vehicle.

For the molecule `CC[C@H](C)[C@H](NC(=O)[C@H](CCC(=O)O)NC(=O)C(C)(C)NC(=O)[C@@H](NC(=O)C1(N)CCCC1)C(C)C)C(=O)N[C@@H](CCC(N)=O)C(=O)N[C@@H](CC(C)C)C(=O)N[C@@H](CCSC)C(=O)N[C@@H](Cc1c[nH]cn1)C(=O)N[C@@H](CCC(=O)O)C(=O)N[C@@H](CCCCNC(=N)N)C(=O)N[C@@H](C)C(=O)N[C@H]1CCCCNC(=O)C[C@@H](C(N)=O)NC(=O)[C@H](CC(N)=O)NC(=O)[C@H](CC(C)C)NC(=O)[C@H](Cc2c[nH]c3ccccc23)NC1=O` [SEQ ID NO: 24, H-Ac5c-Val-Aib-Glu-Ile-Gln-Leu-Met-His-Glu-Har-Ala-Lys( )-Trp-Leu-Asn-Asp( )-NH2] (H-[Ac5c]V[Aib]EIQLMHE[hArg]AKWLND-NH2; lactam 13-17), the EC50 in series [1] (setting [3]) was 0.126 µM. In addition, the “Emax ± SEM” value in series [1] is 1.4. Further, the “CYP2D6 activity (% of vehicle)” value in series [2] is recorded as 83 % of vehicle.

For `CC[C@H](C)[C@H](NC(=O)[C@H](CCC(=O)O)NC(=O)C(C)(C)NC(=O)[C@@H](NC(=O)C1(N)CCCC1)C(C)C)C(=O)N[C@@H](CCC(N)=O)C(=O)N[C@@H](CC(C)C)C(=O)N[C@@H](CCSC)C(=O)N[C@@H](Cc1c[nH]cn1)C(=O)N[C@@H](CC(N)=O)C(=O)N[C@@H](CC(C)C)C(=O)NCC(=O)N[C@H]1CCCCNC(=O)C[C@@H](C(N)=O)NC(=O)[C@H](CC(N)=O)NC(=O)[C@H](CC(C)C)NC(=O)[C@H](Cc2c[nH]cn2)NC1=O` [SEQ ID NO: 34] (H-[Ac5c]V[Aib]EIQLMHNLGKHLND-NH2; lactam 13-17), the “potency compared to linear / non-stabilized counterparts, in words” value in series [1] (cAMP) is “significantly higher potency”; in series [1] (cAMP, listed as 34), “increased potencies”; in series [1] (cAMP, listed as SEQ ID NO:34) it was “strikingly higher potency”. In addition, the EC50 in series [1] (setting [3]) is 0.214 µM. In series [1], the “Emax ± SEM” value came to 1.12 ± 0.09. The “CYP2D6 activity (% of vehicle)” value in series [2] is reported as 107 % of vehicle.

With `CC[C@H](C)[C@H](NC(=O)[C@H](CCC(=O)O)NC(=O)[C@H](CO)NC(=O)[C@@H](NC(=O)[C@@H](N)CO)C(C)C)C(=O)N[C@@H](CCC(N)=O)C(=O)N[C@@H](CC(C)C)C(=O)N[C@@H](CCSC)C(=O)N[C@@H](Cc1c[nH]cn1)C(=O)N[C@@H](CC(N)=O)C(=O)N[C@@H](CC(C)C)C(=O)NCC(=O)N[C@@H](CCCCN)C(=O)N[C@@H](Cc1c[nH]cn1)C(=O)N[C@@H](CC(C)C)C(=O)N[C@@H](CC(N)=O)C(=O)N[C@@H](CO)C(N)=O` [SEQ ID NO: 37, reference compound], the “pEC50 ± SEM” value in series [1] (setting [3]) was “inactive”. The “CYP2D6 activity (% of vehicle)” value in series [2] is recorded as 41 % of vehicle.

Take `CC[C@H](C)[C@H](NC(=O)[C@H](CCC(=O)O)NC(=O)C(C)(C)NC(=O)[C@@H](NC(=O)C1(N)CCCC1)C(C)C)C(=O)N[C@@H](CCC(N)=O)C(=O)N[C@@H](CC(C)C)C(=O)N[C@@H](CCSC)C(=O)N[C@@H](Cc1c[nH]cn1)C(=O)N[C@@H](CCC(N)=O)C(=O)N[C@@H](CCCCNC(=N)N)C(=O)N[C@@H](C)C(=O)N[C@H]1CSSC[C@@H](C(N)=O)NC(=O)[C@H](CC(N)=O)NC(=O)[C@H](CC(C)C)NC(=O)[C@H](Cc2c[nH]c3ccccc23)NC1=O` [SEQ ID NO: 7, H-Ac5c-Val-Aib-Glu-Ile-Gln-Leu-Met-His-Gln-Har-Ala-Cys( )-Trp-Leu-Asn-Cys( )-NH2] (H-[Ac5c]V[Aib]EIQLMHQ[hArg]ACWLNC-NH2; disulfide 13-17): the EC50 in series [1] (setting [3]) is 0.0501 µM. For the same molecule, the “Emax ± SEM” value in series [1] is given as 1.2. The “CYP2D6 activity (% of vehicle)” value in series [2] is 85 % of vehicle.

Values taken from patent publication US20100048462A1, “TRUNCATED PTH PEPTIDES WITH A CYCLIC CONFORMATION” (Zealand Pharma A/S, priority 2006, published 2010).
